Reference: patent US20240270809A1, “ORAL GLP RECEPTOR AGONISTS” (priority 2020, published 2024)
Positions of bridges follow the written chain, without caps; N, C: chain ends. Non-standard residues stand in square brackets, D forms with d. Residues, ends and D or L forms follow the SMILES beside them. *: point of attachment. Malonyl(2,2-Me2,histaminyl) = CC(C)(C(=O)NCCc1cnc[nH]1)C(=O)*; Ala(1H-tetrazol-5-yl) = N[C@@H](Cc1nnn[nH]1)C(=O)O; Nle = CCCC[C@H](N)C(=O)O; Aib = CC(C)(N)C(=O)O

Tests used:
[1] = molecular target: T1, human GLP1 receptor (Homo sapiens, UniProt P43220); assay: cAMP accumulation assay, functional agonism of human GLP1 receptor; type: cell-based; settings: HEK cells infected with human GLP1 receptor BacMam virus, HTRF cAMP; for Emax: HEK293, read-out: Human GLP-1R agonist cAMP Emax; for EC50: read-out: Human GLP-1R agonist cAMP pEC50 (converted)
T1 construct: expressed in transfected cells; host or cells: HEK cells, BacMam virus transduction
T1 sequence (P43220 24-463): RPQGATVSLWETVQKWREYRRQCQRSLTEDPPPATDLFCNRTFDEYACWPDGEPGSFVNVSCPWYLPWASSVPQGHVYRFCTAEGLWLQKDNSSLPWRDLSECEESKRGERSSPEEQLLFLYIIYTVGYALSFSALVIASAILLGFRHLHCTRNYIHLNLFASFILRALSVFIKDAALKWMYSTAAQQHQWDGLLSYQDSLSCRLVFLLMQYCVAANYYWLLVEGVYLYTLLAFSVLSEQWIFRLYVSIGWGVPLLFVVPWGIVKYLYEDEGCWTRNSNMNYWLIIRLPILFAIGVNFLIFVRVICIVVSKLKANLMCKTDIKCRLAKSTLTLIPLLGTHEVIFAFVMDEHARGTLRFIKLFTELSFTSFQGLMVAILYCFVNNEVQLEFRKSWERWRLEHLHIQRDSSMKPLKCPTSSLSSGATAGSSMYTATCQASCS
Method in brief: (§1)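 Agonist-driven cAMP production was quantified by homogeneous time-resolved fluorescence. Receptor expression in HEK cells came from a 24-hour BacMam infection, and cells were frozen ahead of the assay. Incubation lasted 45 min at 37° C in HBSS supplemented with 0.5 mM IBMX.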

[2] = molecular target: T2, human GLP2 receptor (Homo sapiens, UniProt O95838); assay: cAMP accumulation assay, functional agonism of human GLP2 receptor; type: cell-based; settings: HEK cells infected with human GLP2 receptor BacMam virus, HTRF cAMP; for Emax: HEK293, read-out: Human GLP-2R agonist cAMP Emax; for EC50: read-out: Human GLP-2R agonist cAMP pEC50 (converted)
T2 construct: expressed in transfected cells; host or cells: HEK cells, BacMam virus transduction
T2 sequence (O95838 1-553): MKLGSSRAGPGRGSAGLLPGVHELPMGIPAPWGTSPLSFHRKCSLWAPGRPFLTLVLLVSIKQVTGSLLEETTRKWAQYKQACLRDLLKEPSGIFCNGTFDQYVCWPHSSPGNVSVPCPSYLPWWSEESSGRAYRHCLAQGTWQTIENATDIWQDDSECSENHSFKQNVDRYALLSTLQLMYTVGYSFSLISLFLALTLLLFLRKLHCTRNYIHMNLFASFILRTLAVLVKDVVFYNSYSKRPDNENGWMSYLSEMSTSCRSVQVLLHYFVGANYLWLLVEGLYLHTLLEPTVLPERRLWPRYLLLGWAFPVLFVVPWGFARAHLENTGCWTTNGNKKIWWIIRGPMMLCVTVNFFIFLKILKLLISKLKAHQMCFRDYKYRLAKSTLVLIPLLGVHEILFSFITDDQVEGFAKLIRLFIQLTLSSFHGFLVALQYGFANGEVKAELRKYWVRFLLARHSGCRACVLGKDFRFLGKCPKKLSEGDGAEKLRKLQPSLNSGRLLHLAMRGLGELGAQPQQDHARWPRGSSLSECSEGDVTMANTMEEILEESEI
Method in brief: as §1

[3] = Stability of peptides in Fasted-State Simulated Intestinal Fluid (FaSSIF); type: in vitro ADME; settings: FaSSIF with 10 mg/ml pancreatin; FaSSIF pH 6.5 with 10 mg/ml pancreatin, 37° C., t = 15 mins

| Emax [1] [%] | EC50 [1] [nM] | Emax [2] [%] | EC50 [2] [nM] | remaining at 0.25 h [3] [%] | SMILES |
| --- | --- | --- | --- | --- | --- |
| 97.4 | 0.0251 | 101 | 0.0251 | 1.6 | CCCC[C@H](NC(=O)[C@H](CCC(=O)O)NC(=O)[C@H](CC(=O)O)NC(=O)[C@H](CO)NC(=O)[C@H](Cc1ccccc1)NC(=O)[C@H](CO)NC(=O)CNC(=O)[C@H](Cc1nn[nH]n1)NC(=O)C(C)(C)C(=O)NCCc1c[nH]cn1)C(=O)N[C@H](Cc1ccccc1)C(=O)N[C@H]1CCCCNC(=O)C[C@@H](C(=O)N[C@@H](CCCCN)C(=O)N[C@@H](C)C(=O)N[C@@H](C)C(=O)N[C@@H](CCCCN)C(=O)N[C@@H](CC(=O)O)C(=O)N[C@@H](Cc2ccccc2)C(=O)N[C@H](C(=O)N[C@@H](CC(N)=O)C(=O)N[C@@H](Cc2c[nH]c3ccccc23)C(=O)N[C@@H](CC(C)C)C(=O)N[C@H](C(=O)N[C@@H](CCC(N)=O)C(=O)N[C@H](C(=O)N[C@H]2CCC(=O)NCCCC[C@@H](C(N)=O)NC(=O)[C@H]([C@@H](C)O)NC(=O)[C@H]([C@@H](C)CC)NC2=O)[C@@H](C)O)[C@@H](C)CC)[C@@H](C)CC)NC(=O)[C@H](CC(=O)O)NC(=O)[C@H](CC(C)C)NC(=O)[C@H]([C@@H](C)CC)NC1=O [Example 105] ({Malonyl(2,2-Me2,histaminyl)}-[Ala(1H-tetrazol-5-yl)]GSFSDE[Nle][dF]KILDDKAAKDFINWLIQTEITK-NH2; lactam 10-14, 28-31 (inferred); C-terminus assumed) |
| 97 | 0.0251 | 102 | 0.00794 | 4.6 | CCCC[C@H](NC(=O)[C@H](CCC(=O)O)NC(=O)[C@H](CC(=O)O)NC(=O)[C@H](CO)NC(=O)[C@H](Cc1ccccc1)NC(=O)[C@H](CO)NC(=O)CNC(=O)[C@H](Cc1nn[nH]n1)NC(=O)C(C)(C)C(=O)NCCc1c[nH]cn1)C(=O)N[C@H](Cc1ccccc1)C(=O)N[C@H]1CCCCNC(=O)C[C@@H](C(=O)N[C@@H](CCCCN)C(=O)N[C@@H](C)C(=O)N[C@@H](C)C(=O)NC(C)(C)C(=O)N[C@@H](CC(=O)O)C(=O)N[C@@H](Cc2ccccc2)C(=O)N[C@H](C(=O)N[C@@H](CC(N)=O)C(=O)N[C@@H](Cc2c[nH]c3ccccc23)C(=O)N[C@@H](CC(C)C)C(=O)N[C@H](C(=O)N[C@@H](CCC(N)=O)C(=O)N[C@H](C(=O)N[C@H]2CCC(=O)NCCCC[C@@H](C(N)=O)NC(=O)[C@H]([C@@H](C)O)NC(=O)[C@H]([C@@H](C)CC)NC2=O)[C@@H](C)O)[C@@H](C)CC)[C@@H](C)CC)NC(=O)[C@H](CC(=O)O)NC(=O)[C@H](CC(C)C)NC(=O)[C@H]([C@@H](C)CC)NC1=O [Example 109] ({Malonyl(2,2-Me2,histaminyl)}-[Ala(1H-tetrazol-5-yl)]GSFSDE[Nle][dF]KILDDKAA[Aib]DFINWLIQTEITK-NH2; lactam 10-14, 28-31) |

Continued, molecule first:

| SMILES | Emax [1] [%] | EC50 [1] [nM] | Emax [2] [%] | EC50 [2] [nM] | remaining at 0.25 h [3] [%] |
| --- | --- | --- | --- | --- | --- |
| CCCC[C@H](NC(=O)[C@H](CCC(=O)O)NC(=O)[C@H](CC(=O)O)NC(=O)[C@H](CO)NC(=O)[C@H](Cc1ccccc1)NC(=O)[C@H](CO)NC(=O)CNC(=O)[C@H](Cc1nn[nH]n1)NC(=O)C(C)(C)C(=O)NCCc1c[nH]cn1)C(=O)N[C@H](Cc1ccccc1)C(=O)N[C@H]1CCCCNC(=O)C[C@@H](C(=O)N[C@@H](CCCCN)C(=O)N[C@@H](C)C(=O)N[C@@H](C)C(=O)N[C@@H](CCCCN)C(=O)N[C@@H](CC(=O)O)C(=O)N[C@@H](Cc2ccccc2)C(=O)N[C@H](C(=O)N[C@@H](CC(N)=O)C(=O)N[C@@H](Cc2c[nH]c3ccccc23)C(=O)N[C@@H](CC(C)C)C(=O)N[C@H](C(=O)N[C@@H](CCC(N)=O)C(=O)N[C@H](C(=O)N[C@@H](CCCCN)C(=O)N[C@H](C(=O)N[C@H](C(=O)N[C@@H](Cc2ccccc2)C(N)=O)[C@@H](C)O)[C@@H](C)CC)[C@@H](C)O)[C@@H](C)CC)[C@@H](C)CC)NC(=O)[C@H](CC(=O)O)NC(=O)[C@H](CC(C)C)NC(=O)[C@H]([C@@H](C)CC)NC1=O [Example 91] ({Malonyl(2,2-Me2,histaminyl)}-[Ala(1H-tetrazol-5-yl)]GSFSDE[Nle][dF]KILDDKAAKDFINWLIQTKITF-NH2; lactam 10-14) | 98.8 | 0.251 | 104 | 0.01 | 8.8 |
| CCCC[C@H](NC(=O)[C@H](CCC(=O)O)NC(=O)[C@H](CC(=O)O)NC(=O)[C@H](CO)NC(=O)[C@H](Cc1ccccc1)NC(=O)[C@H](CO)NC(=O)CNC(=O)[C@H](Cc1nn[nH]n1)NC(=O)C(C)(C)C(=O)NCCc1c[nH]cn1)C(=O)N[C@H](Cc1ccccc1)C(=O)N[C@H](C(=O)N[C@H](C(=O)N[C@@H](CC(C)C)C(=O)N[C@@H](CC(=O)O)C(=O)N[C@H]1CC(=O)NCCCC[C@@H](C(=O)N[C@@H](CC(=O)O)C(=O)N[C@@H](Cc2ccccc2)C(=O)N[C@H](C(=O)N[C@@H](CC(N)=O)C(=O)N[C@@H](Cc2c[nH]c3ccccc23)C(=O)N[C@@H](CC(C)C)C(=O)N[C@H](C(=O)N[C@@H](CCC(N)=O)C(=O)N[C@H](C(=O)N[C@H]2CCC(=O)NCCCC[C@@H](C(N)=O)NC(=O)[C@H]([C@@H](C)O)NC(=O)[C@H]([C@@H](C)CC)NC2=O)[C@@H](C)O)[C@@H](C)CC)[C@@H](C)CC)NC(=O)[C@H](C)NC(=O)[C@H](C)NC(=O)[C@H](CCCCN)NC1=O)[C@@H](C)CC)[C@@H](C)O [Example 106] ({Malonyl(2,2-Me2,histaminyl)}-[Ala(1H-tetrazol-5-yl)]GSFSDE[Nle][dF]TILDDKAAKDFINWLIQTEITK-NH2; lactam 14-18, 28-31; C-terminus assumed) | 97.2 | 0.316 | 102 | 0.501 | 9.6 |
| CCCC[C@H](NC(=O)[C@H](CCC(=O)O)NC(=O)[C@H](CC(=O)O)NC(=O)[C@H](CO)NC(=O)[C@H](Cc1ccccc1)NC(=O)[C@H](CO)NC(=O)CNC(=O)[C@H](Cc1nn[nH]n1)NC(=O)C(C)(C)C(=O)NCCc1c[nH]cn1)C(=O)N[C@H](Cc1ccccc1)C(=O)N[C@H](C(=O)N[C@H](C(=O)N[C@@H](CC(C)C)C(=O)N[C@@H](CC(=O)O)C(=O)N[C@H]1CCC(=O)NCCCC[C@@H](C(=O)N[C@@H](CC(=O)O)C(=O)N[C@@H](Cc2ccccc2)C(=O)N[C@H](C(=O)N[C@@H](CC(N)=O)C(=O)N[C@@H](Cc2c[nH]c3ccccc23)C(=O)N[C@@H](CC(C)C)C(=O)N[C@H](C(=O)N[C@@H](CCC(N)=O)C(=O)N[C@H](C(=O)N[C@H]2CCC(=O)NCCCC[C@@H](C(N)=O)NC(=O)[C@H]([C@@H](C)O)NC(=O)[C@H]([C@@H](C)CC)NC2=O)[C@@H](C)O)[C@@H](C)CC)[C@@H](C)CC)NC(=O)[C@H](C)NC(=O)[C@H](C)NC(=O)[C@H](CCCCN)NC1=O)[C@@H](C)CC)[C@@H](C)O [Example 107] ({Malonyl(2,2-Me2,histaminyl)}-[Ala(1H-tetrazol-5-yl)]GSFSDE[Nle][dF]TILDEKAAKDFINWLIQTEITK-NH2; lactam 14-18, 28-31) | 96.9 | 0.02 | 101 | 0.02 | 7.4 |
